Measurements published in PMC10380083, “Synthesis of Prostate-Specific Membrane Antigen-Targeted Bimodal Conjugates of Cytotoxic Agents and Antiandrogens and Their Comparative Assessment with Monoconjugates” (International Journal of Molecular Sciences, 2023).
Like-named read-outs stand apart in the source and are kept apart here. *1 amine or outer side, *2 acyl side, *3 side chain or, on linkers, in order; H or OH if unused. Where a SMILES comes first, the peptide text is derived from it. [ ]: non-standard residue; d: D form. The star is where a group is joined. GluureaLys(ε-3-ClBenzyl) = O=C(O)CC[C@H](NC(=O)N[C@@H](CCCCN(Cc1cccc(Cl)c1)*)C(=O)O)C(=O)O; X3 = CC1(C)C(=O)N(c2ccc(C#N)c(C(F)(F)F)c2)C(=S)N1c1ccc(C(=O)*)c(F)c1; Dolaproine = CO[C@@H]([C@@H]1CCCN1)[C@@H](C)C(=O)O; Dil = CC[C@H](C)[C@H](NC)[C@@H](CC(=O)O)OC; X2 = O=C(CCCc1cn(CCCN[*:1])nn1)[*:2]; PABC = O=C(OCc1ccc(N[*:1])cc1)[*:2]; X1 = C[C@@H](N*)[C@@H](O)c1ccccc1; Cit = NC(=O)NCCC[C@H](N)C(=O)O; Suc = O=C(CCC(=O)[*:2])[*:1]; NMeV = CN[C@H](C(=O)O)C(C)C; Ahx = NCCCCCC(=O)O

Experiments:
[1] = Body weight, general condition and mortality in the antitumor efficacy study; conditions: i.v. 132.3 nM/kg x3
Experimental: Animal body weight data are presented in Table S2 in the electronic supplementary materials.
To study the antitumor efficacy, conjugates were administered intravenously at a dose of 132.3 nM/kg to tumor-bearing mice three times at five-day intervals; administration was started 7−8 days after cell inoculation, and the tumor size was 70−90 mm^3. As a control substance, 0.9% sodium chloride solution was used. Experimental groups included five animals each. […] The mixture was dissolved in DMSO (5% of final solution) and diluted with hemodesum (30% low-molecular-weight polyvinylpyrrolidone (Mw = 8000 ± 200) saline infusion solution). The presence of tumors and their sizes, as well as the body weights of the mice, were recorded every five days during the observation of the animals. The antitumor effect was assessed by comparing the tumor volumes in the experimental and control groups as well as the amount of tumor growth inhibition (TGI, %). […]
(§1) 3.2.1. In vivo evaluation of antitumor efficacy […]
(§2) intravenously at a dose of 132.3 nM/kg to tumor-bearing mice three times at 5-day intervals, the administration was started 7-8 days after cell inoculation to animals, tumor size was 70-90 mm3.
(§3) A 0.9% sodium chloride solution was used as a control substance. The experimental groups […]
(§4) The presence of tumor masses and their size, as well as the body weight of the mice, were recorded every 5 days during observation. In accordance with humane principles, animals were euthanized by placing the mice in a CO2 inhalation chamber (ZOONLAB GmbH, Germany).
Conjugate Method of injection Dose Number of animals 22Rv1 PC-3 […]
3.4. In vivo Efficacy Evaluation
Days after tumor implantation / mass± error, g
Conjugate 7 day 12 day 17 day […]
injection) injection) injection)
Human prostate carcinoma 22Rv1
Human prostate adenocarcinoma PC-3
Table S3. Tumor growth dynamics of 22Rv1 and PC-3 in mice with intravenous triple injection of […]
ate Days after tumor implantation / V±m, mm3

[2] = system: PC-3 prostate adenocarcinoma xenograft; conditions: PC-3 xenograft; for tumor volume V±m: i.v. triple injection, single dose 132.3 nM/kg; for Tumor growth inhibition: i.v. 132.3 nM/kg three times; for TGI, did not exceed: i.v. 132.3 nM/kg three times at five-day intervals, male Balb/c nude mice
Experimental: (§5) We carried out in vivo studies of the efficacy of the obtained bimodal conjugates. […] Also, conjugate I (Figure 5) was used as a reference compound. An isotonic (0.9%) sodium chloride solution was used as a negative control. Studies were carried out in xenograft models of 22Rv1 human prostate carcinoma and PC-3 prostate adenocarcinoma in immunodeficient Balb/c nude mice (male).
(§6) Two cell lines were used: human prostate carcinoma 22Rv1 and prostate adenocarcinoma PC-3 (ATCC collection). Cells were cultured in 75 cm^2 vials (Costar, Washington, DC, USA) in RPMI-1640 medium (PanEco, Russia) with the addition of 2 mM L-glutamine (PanEco, Russia) and 10% fetal calf serum (HyClone, Logan, UT, USA) under standard conditions of cultivation (in a humidified atmosphere at 37 °C and 5% CO2). Cells of 6–10 passages were used to inoculate the animals. Cell suspension was prepared with a concentration of 5 × 10^6 cells in 0.05 mL of the 22Rv1 medium and in 0.1 mL of the PC-3 medium. 22Rv1 cells were inoculated into animals in Matrigel (BD Matrigel Basement Membrane Matrix, BD Biosciences, San Jose, CA, USA). Manipulations with Matrigel were performed on a refrigerated plate using precooled materials, tubes and instrumentation. For animal administration, 50 μL of the cell suspension (5 × 10^6 cells) was transferred to a chilled tube containing 50 μL of Matrigel; after mixing, the cellular material (final volume of 100 μL) was injected subcutaneously into the groin area of the animal. To obtain subcutaneous xenograft PC-3, a 5 × 10^6 suspension of tumor cells was inoculated subcutaneously into the inguinal cavity of male mice in a volume of 0.1 mL.
(§7) To study the antitumor efficacy, conjugates were administered intravenously at a dose of 132.3 nM/kg to tumor-bearing mice three times at five-day intervals; administration was started 7−8 days after cell inoculation, and the tumor size was 70−90 mm^3. As a control substance, 0.9% sodium chloride solution was used. Experimental groups included five animals each. […] The mixture was dissolved in DMSO (5% of final solution) and diluted with hemodesum (30% low-molecular-weight polyvinylpyrrolidone (Mw = 8000 ± 200) saline infusion solution). The presence of tumors and their sizes, as well as the body weights of the mice, were recorded every five days during the observation of the animals. The antitumor effect was assessed by comparing the tumor volumes in the experimental and control groups as well as the amount of tumor growth inhibition (TGI, %).
(§8) Tumor volume was calculated using Formula (1):V = d1 × d2 × d3 × 0.52(1) where d1, d2 and d3 are the three mutually perpendicular dimensions of the tumor. […]
as §1, §2, §3, §4

[3] = system: 22Rv1 human prostate carcinoma xenograft; conditions: 22Rv1 xenograft; for tumor volume V±m: i.v. triple injection, single dose 132.3 nM/kg; for Tumor growth inhibition: i.v. 132.3 nM/kg three times
Experimental: as §5, §6, §7, §8, §1, §2, §3, §4

[4] = 22Rv1 xenograft mice, 7 day after tumor implantation (1st injection)
[5] = 22Rv1 xenograft mice, 12 day after tumor implantation (2nd injection)
[6] = 22Rv1 xenograft mice, 17 day after tumor implantation (3rd injection)
[7] = 22Rv1 xenograft mice, 22 day after tumor implantation
[8] = 22Rv1 xenograft mice, 27 day after tumor implantation
[9] = 22Rv1 xenograft mice, 33 day after tumor implantation
[10] = 22Rv1 xenograft mice, 37 day after tumor implantation
[11] = PC-3 xenograft mice, 7 day after tumor implantation (1st injection)
[12] = PC-3 xenograft mice, 12 day after tumor implantation (2nd injection)
[13] = PC-3 xenograft mice, 17 day after tumor implantation (3rd injection)
[14] = PC-3 xenograft mice, 22 day after tumor implantation
[15] = PC-3 xenograft mice, 27 day after tumor implantation
[16] = PC-3 xenograft mice, 33 day after tumor implantation
[17] = PC-3 xenograft mice, 37 day after tumor implantation
[18] = 7 day after tumor implantation (1st injection)
[19] = 12 day after tumor implantation (2nd injection)
[20] = 17 day after tumor implantation (3rd injection)
[21] = 22 day after tumor implantation
[22] = 27 day after tumor implantation
[23] = 33 day after tumor implantation
[24] = 37 day after tumor implantation
[25] = days after the start of treatment: 1
[26] = days after the start of treatment: 5
[27] = days after the start of treatment: 10
[28] = days after the start of treatment: 16
[29] = days after the start of treatment: 20

| SMILES | body weight, mass ± error [1, 4] [g] | body weight, mass ± error [1, 5] [g] | body weight, mass ± error [1, 6] [g] | body weight, mass ± error [1, 7] [g] | body weight, mass ± error [1, 8] [g] | body weight, mass ± error [1, 9] [g] | body weight, mass ± error [1, 10] [g] | body weight, mass ± error [1, 11] [g] | body weight, mass ± error [1, 12] [g] | body weight, mass ± error [1, 13] [g] | body weight, mass ± error [1, 14] [g] | body weight, mass ± error [1, 15] [g] | body weight, mass ± error [1, 16] [g] | body weight, mass ± error [1, 17] [g] | tumor volume V±m [2, 18] [mm3] | tumor volume V±m [2, 19] [mm3] | tumor volume V±m [2, 22] [mm3] | tumor volume V±m [2, 23] [mm3] | tumor volume V±m [2, 24] [mm3] | Tumor growth inhibition [2, 25] [%] | further results |
| --- | --- | --- | --- | --- | --- | --- | --- | --- | --- | --- | --- | --- | --- | --- | --- | --- | --- | --- | --- | --- | --- |
| CC[C@H](C)[C@@H]([C@@H](CC(=O)N1CCC[C@H]1[C@H](OC)[C@@H](C)C(=O)N[C@H](C)[C@@H](O)c1ccccc1)OC)N(C)C(=O)[C@@H](NC(=O)[C@@H](NC)C(C)C)C(C)C [MMAE, Monomethyl Auristatin E, reference compound] (H-[NMeV]V[Dil][Dolaproine]-X1) | 24.0 ± 1.3 | 23.7 ± 1.3 | 23.4 ± 1.3 | 23.5 ± 1.3 | 23.8 ± 1.3 | 24.0 ± 1.3 | 24.2 ± 1.4 | 22.4 ± 1.2 | 22.7 ± 1.5 | 22.4 ± 1.4 | 23.0 ± 1.4 | 23.1 ± 1.3 | 23.2 ± 1.2 | 23.3 ± 1.2 | 85.9±8.7 | 117.9 | 592.6 | 1014.3 | 1679.9 | 29.8 | tumor volume V±m [2, 20]: 211.3 mm3; tumor volume V±m [2, 21]: 330.9 mm3; Tumor growth inhibition [2, 26]: 32.1%; Tumor growth inhibition [2, 27]: 29.5%; Tumor growth inhibition [2, 28]: 25.4%; Tumor growth inhibition [2, 29]: 38.4%; TGI, did not exceed [2]: ≤ 38.4%; tumor volume V±m [3, 18]: 73.7±14.3 mm3; tumor volume V±m [3, 19]: 93.6±5.7 mm3; tumor volume V±m [3, 20]: 125.3 mm3; tumor volume V±m [3, 21]: 211.7 mm3; tumor volume V±m [3, 22]: 388.2 mm3; tumor volume V±m [3, 23]: 749.3 mm3; tumor volume V±m [3, 24]: 1402.3 mm3; Tumor growth inhibition [3, 25]: 41.5%; Tumor growth inhibition [3, 26]: 60.1%; Tumor growth inhibition [3, 27]: 64.7%; Tumor growth inhibition [3, 28]: 63.0%; Tumor growth inhibition [3, 29]: 51.0% |
| CC[C@H](C)[C@@H]([C@@H](CC(=O)N1CCC[C@H]1[C@H](OC)[C@@H](C)C(=O)N[C@H](C)[C@@H](O)c1ccccc1)OC)N(C)C(=O)[C@@H](NC(=O)[C@H](C(C)C)N(C)C(=O)OCc1ccc(NC(=O)[C@H](CCCNC(N)=O)NC(=O)[C@@H](NC(=O)CCCc2cn(CCCNC(=O)[C@H](CCCCNC(=O)c3ccc(N4C(=S)N(c5ccc(C#N)c(C(F)(F)F)c5)C(=O)C4(C)C)cc3F)NC(=O)[C@H](Cc3ccc(O)cc3)NC(=O)[C@H](Cc3ccccc3)NC(=O)CCC(=O)NCCCCCC(=O)N(CCCC[C@H](NC(=O)N[C@@H](CCC(=O)O)C(=O)O)C(=O)O)Cc3cccc(Cl)c3)nn2)C(C)C)cc1)C(C)C [compound 15] ({GluureaLys(ε-3-ClBenzyl)-Ahx-Suc}-FYK(X3)[X2]V[Cit][PABC][NMeV]V[Dil][Dolaproine]-X1) | 25.2 ± 1.2 | 25.0 ± 1.2 | 25.0 ± 1.2 | 25.2 ± 1.3 | 25.1 ± 1.3 | 25.2 ± 1.3 | 25.5 ± 1.5 | 23.9 ± 2.1 | 23.8 ± 2.1 | 24.0 ± 2.2 | 24.4 ± 2.3 | 24.8 ± 2.1 | 24.9 ± 1.8 | 25.1 ± 1.9 | 83.1±6.8 | 117.6 | 534.3 | 819.8 | 1318.4 | 20.5 | Tumor growth inhibition [2, 26]: 18.5%; Tumor growth inhibition [2, 27]: 36.5%; Tumor growth inhibition [2, 28]: 39.7%; Tumor growth inhibition [2, 29]: 51.7%; TGI, did not exceed [2]: ≤ 51.7%; tumor volume V±m [3, 18]: 73.3±8.8 mm3; tumor volume V±m [3, 19]: 64.7±15.3 mm3; tumor volume V±m [3, 20]: 76.1±46.5 mm3; tumor volume V±m [3, 21]: 171.6 mm3; tumor volume V±m [3, 23]: 650.1 mm3; tumor volume V±m [3, 24]: 988.7 mm3; Tumor growth inhibition [3, 25]: 64.5%; Tumor growth inhibition [3, 26]: 67.6%; Tumor growth inhibition [3, 27]: 71.3%; Tumor growth inhibition [3, 28]: 67.9%; Tumor growth inhibition [3, 29]: 65.4% |
